Measured values taken from patent US20200331950A1, “SGLTS INHIBITOR AND APPLICATION THEREOF” (SHANDONG DANHONG PHARMACEUTICAL CO., LTD., priority 2018, published 2020).

Tests used:
db/db mice [1] = experiment: Fasting blood glucose in diabetic db/db mice; assay type: in vivo; conditions: fasted from 10:00, mean±S.E.M.
Experimental: (§1) Experimental Example 4: Study on the In Vivo Pharmacodynamics in Diabetic Db/Db Mice
(§2) The animals were kept in an animal breeding room with strictly controlled environmental conditions after they arrived. The animal breeding room was maintained at a temperature of 20-24° C. and a humidity of 40-70%. The temperature and humidity in the feeding room were monitored in real time by a hygrothermograph, and the temperature and humidity were recorded twice daily (one in the morning and the other in the afternoon). The lighting of the animal feeding room was controlled by an on-off electronic timing system, with lights for 12 hours and dark for 12 hours daily (turned on at 7:00 a.m. and turned off at 19:00 p.m). The mice were raised in separate cages and were given free access to feed (reproductive feed 17053113 for rats and mice, available from Beijing Keao Xieli Feed Co., Ltd.) and water during the experiment.
(§3) During the experiment, the animals were administrated with the corresponding vehicles or drugs according to the group with an administration time of 16:00 and an administration period of 8 weeks.
(§4) The dose was 5 mg/kg from week 1 to week 4; and the dose was 10 mg/kg from week 5 to week 8.
(§5) Random and fasting blood glucose levels were measured once a week.
Fasting blood glucose test: The mice fasted from 10:00 a.m., and blood glucose level was firstly measured at 16:00. Then the mice were administered with the drugs, and 2 hours later blood glucose level was measured again, and then feed intake was restored.
(§6) All of the data were entered into an Excel document and expressed in the form of mean±S.E.M. The differences between groups were compared using graphpad Prism 6 software and one-way analysis of variance (ANOVA). P value of less than 0.05 is considered a significant difference.

Human-SGLT2 = target: T1, Human-SGLT2 (Homo sapiens, UniProt P31639); experiment: SGLT2 glucose transport test ([14C]-labeled methyl a-D-glucopyranoside uptake); assay type: cell-based; conditions: cells stably expressing Human-SGLT2; 37° C., 2 hours
T1 sequence (P31639 1-672): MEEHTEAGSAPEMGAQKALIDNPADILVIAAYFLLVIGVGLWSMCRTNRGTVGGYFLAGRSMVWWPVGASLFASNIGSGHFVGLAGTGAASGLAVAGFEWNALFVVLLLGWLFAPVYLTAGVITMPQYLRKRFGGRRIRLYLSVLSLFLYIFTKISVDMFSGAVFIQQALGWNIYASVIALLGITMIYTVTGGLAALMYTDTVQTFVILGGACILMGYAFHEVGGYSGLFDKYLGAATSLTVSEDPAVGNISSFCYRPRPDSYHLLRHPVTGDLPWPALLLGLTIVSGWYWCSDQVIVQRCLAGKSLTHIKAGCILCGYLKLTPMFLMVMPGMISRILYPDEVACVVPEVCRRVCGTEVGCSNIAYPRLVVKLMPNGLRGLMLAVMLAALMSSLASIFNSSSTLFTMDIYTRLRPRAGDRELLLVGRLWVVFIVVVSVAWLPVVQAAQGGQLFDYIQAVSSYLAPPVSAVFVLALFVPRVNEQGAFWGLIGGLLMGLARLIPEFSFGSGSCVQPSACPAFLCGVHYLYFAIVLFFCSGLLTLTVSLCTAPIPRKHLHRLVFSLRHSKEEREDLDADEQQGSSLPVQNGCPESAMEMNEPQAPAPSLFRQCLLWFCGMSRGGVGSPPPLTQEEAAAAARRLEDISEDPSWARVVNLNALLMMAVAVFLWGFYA
Experimental: Biological Activity Experiment 2: SGLT2 Glucose Transport Test.
1. Purpose of the Experiment:
The effect of the compound on the glucose transport activity of SGLT2 transporter was detected by measuring the amount of [^14C]-labeled glucose entering cells with high expression of Human-SGLT2.
The cells stably expressing Human-SGLT2 were constructed by Wuxi AppTec(Shanghai) Co., Ltd. SGLT2 cells were laid in 96-well cell culture plate (Greiner) and cultured overnight in 5% CO2 environment at 37° C.
2.2. SGLT2 Glucose Transport Test.
1) Experimental buffer, including: 10 mM 4-hydroxyethylpiperazineethanesulfonic acid (HEPES), 1.2 mM magnesium chloride (MgCl2), 4.7 mM potassium chloride (KCl), 2.2 mM calcium chloride (CaCl2) and 120 mM sodium chloride (NaCl).
2) Stop buffer, including: 10 mM 4-hydroxyethylpiperazineethanesulfonic acid (HEPES), 1.2 mM magnesium chloride (MgCl2), 4.7 mM potassium chloride (KCl), 2.2 mM calcium chloride (CaCl2), 120 mM sodium chloride (NaCl) and 1 μM LX4211.
3) Compounds were serially diluted in 100% dimethyl sulfoxide (DMSO) starting at 10 uM and make a 5-folds, 8 points serials compound dilutions.
4) 6 μM [^14C]-labeled methyl a-D-lucopyranosid was prepared with the experimental buffer.
5) The cells were treated with 49 uL of the experimental buffer, 1 μL of the gradient diluted compound and 50 μL of the 6 μM [^14C]-labeled methyl a-D-lucopyranosid solution at 37° C. for 2 hours.
6) The solution was sucked out from holes, and the cells were rinsed with the stop buffer for 3 times.
7) The cells were lysed with 50 ul of 10% sodium hydroxide solution, the cell lysate was sucked into a scintillation tube, into which 2 mL scintillation solution was then added.
8) The data were read with an isotope detector Tricarb.
9) The IC50 value of the tested compound was obtained by the calculation formula: log(inhibitor) vs. response—Variable slope, using GraphPad Prism 5.0 software.

db/db mice [2] = experiment: Random blood glucose in diabetic db/db mice; assay type: in vivo; conditions: mean±S.E.M.
Experimental: as §1, §2, §3, §4, §5
The random blood glucose level was measured at 10:00 a.m.
as §6

[3] = Week 1, 5 mg/kg intragastric once daily
[4] = Week 2, 5 mg/kg intragastric once daily
[5] = Week 3, 5 mg/kg intragastric once daily
[6] = Week 4, 5 mg/kg intragastric once daily
[7] = Week 5, 10 mg/kg intragastric once daily (5 mg/kg weeks 1-4)
[8] = Week 6, 10 mg/kg intragastric once daily (5 mg/kg weeks 1-4)
[9] = Week 7, 10 mg/kg intragastric once daily (5 mg/kg weeks 1-4)
[10] = Week 8, 10 mg/kg intragastric once daily (5 mg/kg weeks 1-4)

IC50 (Human-SGLT2) [nM]	SMILES	Fasting blood glucose (db/db mice [1]; [3])	Fasting blood glucose (db/db mice [1]; [4])	Fasting blood glucose (db/db mice [1]; [5])	Fasting blood glucose (db/db mice [1]; [6])	Fasting blood glucose (db/db mice [1]; [7])	Fasting blood glucose (db/db mice [1]; [8])	Fasting blood glucose (db/db mice [1]; [9])	Fasting blood glucose (db/db mice [1]; [10])	Random blood glucose (db/db mice [2]; [3])	Random blood glucose (db/db mice [2]; [4])	Random blood glucose (db/db mice [2]; [5])	Random blood glucose (db/db mice [2]; [6])	Random blood glucose (db/db mice [2]; [7])	Random blood glucose (db/db mice [2]; [8])	Random blood glucose (db/db mice [2]; [9])	Random blood glucose (db/db mice [2]; [10])
2.04	CS[C@H]1O[C@@H](c2ccc(C)c(Cc3ccc(C4=CCC(F)(F)CC4)cc3)c2)[C@H](O)[C@@H](O)[C@@H]1O [WXD003]	14.8 ± 2.34	19.9 ± 1.32	15.8 ± 1.48	14.3 ± 1.29	17.4 ± 1.72	10.9 ± 1.42	11.7 ± 1.30	13.0 ± 1.36	14.3 ± 2.28	15.7 ± 0.88	13.6 ± 1.40	13.3 ± 0.81	14.1 ± 1.28	10.1 ± 1.26	12.5 ± 1.23	14.4 ± 1.77
3.98	CS[C@H]1OC(c2ccc(Cl)c(Cc3ccc(C4=CCC(F)(F)CC4)cc3)c2)[C@H](O)[C@@H](O)[C@@H]1O (some centres unmarked) [WXD001]																
2.49	CCc1ccc([C@@H]2O[C@H](SC)[C@@H](O)[C@H](O)[C@H]2O)cc1Cc1ccc(C2=CCC(F)(F)CC2)cc1 [WXD010]	14.7 ± 2.50	14.4 ± 1.47	15.8 ± 1.40	14.9 ± 1.24	15.9 ± 0.79	11.0 ± 1.67	9.6 ± 0.91	8.1 ± 0.51	16.7 ± 1.00	13.5 ± 2.46	14.1 ± 0.97	15.4 ± 1.34	13.2 ± 1.09	10.6 ± 1.48	9.8 ± 0.82	9.2 ± 0.68
